Data on 14 compounds can be found in ChEMBL document CHEMBL1201862, “PubChem BioAssay data set” (2004).

What all share (test): NCI tumour cell line growth inhibition, 48 h
Test [1] concerns CAKI-1.
In test [2] the test system is RXF 393.
Test [3] has as its system ACHN.
For test [4], the system named is UO-31.
For test [5], the system named is EKVX.
For test [6], the system named is SK-MEL-28.
Test [7] concerns OVCAR-8.
The subject of test [8] is A549.
Test [9] deals with SN12C.
Test [10] concerns NCI-H23.
The subject of test [11] is HCC 2998.
Test [12] relates to SNB-75.
For test [13], the system named is KM12.
For test [14], the system named is Malme-3M.
The subject of test [15] is OVCAR-5.
Test [16] concerns SK-MEL-2.

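Step 1: Grow cells in 96-well plates. Step 2: Expose to compound for 48 hours at 5 concentrations. Step 3: Interpolate endpoints linearly; if unreached, use highest concentration. GI50 = concentration required for 50% inhibition of growth.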 Active and inactive are the calls of the source. Cut-off read from the data, not from the text of the source: active = GI50 up to about 1.1 µM and inactive = higher.

Take `Cn1nc(-c2ccccc2)c(C(=O)/C=C/c2ccc(Cl)cc2)c(N2CCCC2)c1=O`: the GI50 is 0.55 µM (active) in test [1]; 2.63 µM (inactive) in test [2]; 1.72 µM (inactive) in test [3]; 8.51 µM (inactive) in [4]; 11.7 µM (inactive) in [5]; 3.76 µM (inactive) in test [6]. Besides, the GI50 is 4.91 µM (inactive) in [7], 4.36 µM (inactive) in [8], 5.94 µM (inactive) in [9] and 2.89 µM (inactive) in test [10].
For `CC(=O)/C=C/c1cccc(N=S)c1`, the GI50 in test [1] was > 50.9 µM (inactive); in [2] it was 17.6 µM (inactive); in test [3] it was > 38.4 µM (inactive); in test [4], 39.4 µM (inactive); in test [5], > 40.8 µM (inactive); in [11], 12.7 µM (inactive). Besides, the GI50 is 21.1 µM (inactive) in test [12]; 6.68 µM (inactive) in test [13]; > 73.8 µM (inactive) in test [14]; 16.5 µM (inactive) in [6]; > 69 µM (inactive) in test [15]; 12.2 µM (inactive) in test [7]. Besides, the GI50 in [8] is 26.5 µM (inactive); in test [9], 25.6 µM (inactive); in test [10], 30.7 µM (inactive).
`CC1=NN(C(=O)c2ccc(Cl)cc2)C(=O)/C1=C/c1c(O)cc(O)c2ccccc12`: the GI50 in [16], in [1], in test [2], in [3], in [4] and in [5] was > 100 µM (inactive) throughout. Also, the GI50 in [11], in test [13], in test [14], in test [6], in [15] and in test [7] was > 100 µM (inactive) each time. The GI50 in test [8], in [9] and in [10] was > 100 µM (inactive) throughout.
In the case of `Cc1ccc(NC(=O)CCc2n[nH]c(=S)o2)cc1`, the GI50 in test [1], in test [2], in test [3], in [4], in test [5] and in test [11] was > 100 µM (inactive) each time. In addition, the GI50 in test [12], in [13], in [14], in test [6], in [15] and in test [7] was > 100 µM (inactive) throughout. Besides, the GI50 in [8], in test [9] and in test [10] was > 100 µM (inactive) throughout.
In the case of `CCN(CC)c1ccc(/N=N/c2ccc(-c3nc4cccnc4s3)cc2)cc1`, the GI50 in [16], in test [1], in [3], in [4], in [5] and in test [11] was > 100 µM (inactive) in each case. The GI50 is 32.8 µM (inactive) in test [12]; > 100 µM (inactive) in [13]; > 100 µM (inactive) in test [14]; > 100 µM (inactive) in [6]; > 100 µM (inactive) in test [15]; > 100 µM (inactive) in test [7]. In addition, the results for the GI50 in test [8], in [9] and in test [10] were 88.7 µM (inactive), > 100 µM (inactive) and > 100 µM (inactive), respectively.
Take `CC(=O)Nc1ccc(-c2nnc(SCC(=O)Nc3ccccc3C)o2)cc1`: the GI50 in test [16] is > 100 µM (inactive); in test [2], 65.3 µM (inactive); in test [3], > 100 µM (inactive); in [4] it was 52 µM (inactive); in test [12] it was > 100 µM (inactive); in test [13], 44.7 µM (inactive). Also, the GI50 in [14], in test [6], in test [15], in test [7], in test [8] and in [9] was > 100 µM (inactive) in each case. The GI50 in test [10] is > 100 µM (inactive).
With `CN(C)CC/C(=N\Nc1ccc(Cl)cc1Cl)c1ccccc1`, the GI50 in test [16] was 14.5 µM (inactive); in [2], 7.96 µM (inactive); in test [3], 15 µM (inactive); in [4], 2.37 µM (inactive); in test [5], 20.6 µM (inactive); in test [12], 7.74 µM (inactive). Besides, the GI50 in test [13] is 16 µM (inactive); in [14] it was 23.3 µM (inactive); in test [6], 15.2 µM (inactive); in test [15], 16.9 µM (inactive); in [7], 17.7 µM (inactive); in test [8], 15 µM (inactive). Also, the GI50 in test [9] is 12.6 µM (inactive); in [10] it was 17 µM (inactive).
In the case of `CC(C)(C)OC(=O)c1cccnc1/C=N/O`, the GI50 in test [16] was > 100 µM (inactive); in test [1], > 100 µM (inactive); in test [2], > 100 µM (inactive); in [3], 24 µM (inactive); in test [4], > 100 µM (inactive); in test [5], > 100 µM (inactive). Also, the GI50 in [12], in [13], in [14], in test [6], in test [15] and in test [7] was > 100 µM (inactive) throughout. Moreover, the GI50 in test [8], in test [9] and in [10] was > 100 µM (inactive) in each case.
In the case of `COC(CC1(OC)OC(=O)C=C1N)OC` (stereo unspecified), the GI50 in [16] was > 100 µM (inactive); in test [3], > 100 µM (inactive); in [4] it was > 100 µM (inactive); in test [5], > 100 µM (inactive); in test [11], > 100 µM (inactive); in [12], 76.7 µM (inactive). In addition, the GI50 in test [13], in test [14], in [6], in test [15], in [7] and in test [8] was > 100 µM (inactive) in each case. Further, the GI50 in test [9] and in test [10] was > 100 µM (inactive) each time.
Regarding `CCOC(=O)C1=C(c2ccccc2)NC(c2ccccc2)=C(C(=O)OCC)c2c1c(=O)cc[nH]c2=O`, the GI50 in test [16] was > 100 µM (inactive); in [1], > 100 µM (inactive); in [3], 72.8 µM (inactive); in [4], > 100 µM (inactive); in test [11], > 100 µM (inactive); in [12], > 100 µM (inactive). Further, the GI50 is > 100 µM (inactive) in test [13]; > 100 µM (inactive) in [14]; 66.1 µM (inactive) in test [6]; > 100 µM (inactive) in [15]; > 100 µM (inactive) in test [7]; > 100 µM (inactive) in test [8]. Further, the GI50 in test [9] was > 100 µM (inactive); in [10] it was 79.4 µM (inactive).
In the case of `CC(=O)CC(=O)CCC(=O)Nc1cccc(C(F)(F)F)c1`, the GI50 in [16], in test [1], in test [3], in [4], in [5] and in [11] was > 100 µM (inactive) each time. Further, the GI50 in [13], in test [14], in [15], in test [7], in [8] and in test [9] was > 100 µM (inactive) each time. Further, the GI50 in test [10] was > 100 µM (inactive).
Consider `Cn1cc(NC(=O)c2cc(NC(=O)CCCCCC(=O)Nc3cc(C(=O)Nc4cc(C(=O)NCCC(=N)N)n(C)c4)n(C)c3)cn2C)cc1C(=O)NCCC(=N)N`, for which the GI50 in test [1], in [2], in test [3], in test [4], in test [5] and in test [11] was > 100 µM (inactive) each time. The GI50 in [12] is > 100 µM (inactive); in test [13] it was 73.8 µM (inactive); in test [14] it was 9.64 µM (inactive); in [6], 25.2 µM (inactive); in test [15], > 100 µM (inactive); in [7], > 100 µM (inactive). The GI50 was 45.3 µM (inactive) in test [8], > 100 µM (inactive) in [9] and > 100 µM (inactive) in test [10].
In the case of `N#C/C(=C/c1cccc2ccccc12)C(=O)c1ccccc1`, the GI50 in test [16] was 18.9 µM (inactive); in test [1], 23.9 µM (inactive); in [3] it was > 10 µM (inactive); in test [4], 18.4 µM (inactive); in test [5], > 10 µM (inactive); in [11] it was 23.6 µM (inactive). Also, the GI50 is 20.9 µM (inactive) in test [13]; 21.5 µM (inactive) in test [14]; 13.9 µM (inactive) in test [6]; 23.6 µM (inactive) in test [15]; 33 µM (inactive) in test [7]; > 10 µM (inactive) in [8]. The values for the GI50 in test [9] and in test [10] were 33.2 µM (inactive) and 17.8 µM (inactive), respectively.
As to `O=c1cccccc1O.O=c1cccccc1O.O=c1cccccc1O.[SiH4]`, the GI50 was 56.2 µM (inactive) in [1]; 10 µM (inactive) in [3]; 25.2 µM (inactive) in test [4]; < 0.01 µM (active) in [5]; 32.4 µM (inactive) in [11]; 29.1 µM (inactive) in test [12]. In addition, the GI50 in [13] was 26.8 µM (inactive); in test [14], 54.6 µM (inactive); in [6], 55.1 µM (inactive); in test [15], 28.6 µM (inactive); in test [7] it was 11.5 µM (inactive); in [8] it was 25.6 µM (inactive). Further, the GI50 is 25.3 µM (inactive) in [9] and 16.5 µM (inactive) in test [10].
